This is an account of results in PMC4168026 (BioMed Research International, 2014).

“And” between values parts separate entries of the source, which are not always exact repeats. Equal entries are not always repeated.

For assay [1], the target named is T1, CA I (Homo sapiens, UniProt P00915).
T1 construct: five isoforms of human recombinant catalytic domains of carbonic anhydrases (CAs); made in house
As to the kind of experiment: Fluorescent thermal shift assay (FTSA), CA I. It is filed as binding. The following applies: for Kd: FTSA; for energetic contribution (difference in ΔG of binding), CA I: against compound 2, from FTSA, pH 7.0, 37°C.

The target of assay [2] is T2, CA VII (Homo sapiens, UniProt P43166).
T2 construct: five isoforms of human recombinant catalytic domains of carbonic anhydrases (CAs); made in house
T2 sequence (P43166 5-262 limits assumed): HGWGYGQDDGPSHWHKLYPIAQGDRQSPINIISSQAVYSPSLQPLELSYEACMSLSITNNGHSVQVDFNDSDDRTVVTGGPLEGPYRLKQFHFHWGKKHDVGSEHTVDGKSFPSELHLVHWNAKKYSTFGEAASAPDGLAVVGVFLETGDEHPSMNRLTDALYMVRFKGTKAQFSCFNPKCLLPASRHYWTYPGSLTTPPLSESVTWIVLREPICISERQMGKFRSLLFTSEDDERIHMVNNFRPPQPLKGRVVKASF
Nature of the assay: Fluorescent thermal shift assay (FTSA), CA VII. It is filed as binding. The following applies: for Kd: FTSA.

Assay [3] has as its target T3, CA XII (Homo sapiens, UniProt O43570).
T3 construct: five isoforms of human recombinant catalytic domains of carbonic anhydrases (CAs); made in house
As to the kind of experiment: Fluorescent thermal shift assay (FTSA), CA XII. It is filed as binding.

Assay [4] addresses T4, CA XIII (Homo sapiens, UniProt Q8N1Q1).
T4 construct: five isoforms of human recombinant catalytic domains of carbonic anhydrases (CAs); made in house
Nature of the assay: Fluorescent thermal shift assay (FTSA), CA XIII. It is filed as binding. The note with it: for shift of the melting temperature Tm, CA XIII: compound added to 200 μM, pH 7.0.

Assay [5] addresses T1, CA I. As to the kind of experiment: Isothermal titration calorimetry (ITC), CA I. Format: binding. On the technique in general: In ITC the heat of successive injections is recorded.
Assay [6] concerns the target T2, CA VII. Nature of the assay: Isothermal titration calorimetry (ITC), CA VII. Format: binding.
The target of assay [7] is T3, CA XII. Nature of the assay: Isothermal titration calorimetry (ITC), CA XII. Format: binding.
Assay [8] addresses T4, CA XIII. Nature of the assay: Isothermal titration calorimetry (ITC), CA XIII. It is filed as binding.
For assay [9], the target named is CA VII. The following applies: read-out: affinity, CA VII; inhibition method, literature value ref 5; cited from earlier work.
The target in assay [10] is T5, CA II (Homo sapiens, UniProt P00918).
T5 construct: five isoforms of human recombinant catalytic domains of carbonic anhydrases (CAs); made in house
As to the kind of experiment: Fluorescent thermal shift assay (FTSA), CA II. The note with it: 37°C, pH 7.0, read-out: Dissociation constants Kd, CA II. Format: binding.

Assay [11] has as its target T5, CA II. Nature of the assay: Isothermal titration calorimetry (ITC), CA II. It is filed as binding.
Where [12] appears, read: 37°C, pH 7.0, read-out: Dissociation constants Kd, CA I.
Where [13] appears, read: 37°C, pH 7.0, read-out: Dissociation constants Kd, CA XIII.
Setting [14] is: ITC, 37°C, pH 7.0, read-out: Dissociation constants Kd, CA I.
Where [15] appears, read: 37°C, pH 7.0, read-out: Dissociation constants Kd, CA VII.
[16] abbreviates: ITC, 37°C, pH 7.0, read-out: Dissociation constants Kd, CA XII.
The mark [17] stands for this setting: 37°C, pH 7.0, read-out: Dissociation constants Kd, CA XII.
Where [18] appears, read: ITC, 37°C, pH 7.0, read-out: Dissociation constants Kd, CA II.

T3 sequence (O43570 30-289 limits assumed): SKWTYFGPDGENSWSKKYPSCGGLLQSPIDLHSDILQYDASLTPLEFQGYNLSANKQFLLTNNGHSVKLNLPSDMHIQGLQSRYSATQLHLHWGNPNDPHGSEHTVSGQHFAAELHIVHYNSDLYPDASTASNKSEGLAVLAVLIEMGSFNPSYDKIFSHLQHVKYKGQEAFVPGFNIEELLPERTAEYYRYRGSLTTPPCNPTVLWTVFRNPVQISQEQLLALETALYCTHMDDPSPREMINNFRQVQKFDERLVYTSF
T1 sequence (P00915 4-261 limits assumed): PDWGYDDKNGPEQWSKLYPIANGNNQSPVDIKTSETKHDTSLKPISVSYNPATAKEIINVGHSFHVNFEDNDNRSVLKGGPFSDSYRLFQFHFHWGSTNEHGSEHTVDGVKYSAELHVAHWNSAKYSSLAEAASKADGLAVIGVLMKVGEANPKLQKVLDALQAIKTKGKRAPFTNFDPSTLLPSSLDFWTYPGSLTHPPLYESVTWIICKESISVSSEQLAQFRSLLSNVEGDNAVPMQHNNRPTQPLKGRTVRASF
T4 sequence (Q8N1Q1 4-261 limits assumed): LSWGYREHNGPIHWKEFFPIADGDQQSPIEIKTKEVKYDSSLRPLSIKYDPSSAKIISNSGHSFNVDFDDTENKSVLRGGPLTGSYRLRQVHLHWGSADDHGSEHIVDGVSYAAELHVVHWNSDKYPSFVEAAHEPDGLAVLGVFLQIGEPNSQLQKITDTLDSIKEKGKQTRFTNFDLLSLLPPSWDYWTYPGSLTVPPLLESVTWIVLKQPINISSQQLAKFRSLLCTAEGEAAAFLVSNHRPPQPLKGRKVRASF

As for `O=C1NS(=O)(=O)c2ccccc21` [Compound 1, saccharin, reference compound], the Kd – broadly, the equilibrium constant for the complex coming apart – at CA I [1] (setting [12]) is more than 10000 µM; on CA I [1] (no shift up to 7.5 mM, read-out: Kd, CA I), more than 10000 µM; at CA VII [2] (read-out: Kd, CA VII), 1000 µM; on CA XII [3] (read-out: Kd, CA XII), 5900 µM; on CA XIII [4] (setting [13]), 2000 µM; at CA XIII [4] (read-out: Kd, CA XIII), 2000 µM. Further, the Kd is more than 100 µM on CA I [5] (setting [14]); more than 100 µM on CA I [5] (ITC, all tested CAs, read-out: Kd, CA I); more than 100 µM on CA VII [6] (setting [15]); more than 100 µM on CA VII [6] (all tested CAs, read-out: Kd, CA VII); more than 100 µM at CA XII [7] (setting [16]); more than 100 µM on CA XII [7] (ITC, all tested CAs, read-out: Kd, CA XII). Also, the Kd on CA XIII [8] (setting [13]) is more than 100 µM; at CA XIII [8] (all tested CAs, read-out: Kd, CA XIII), more than 100 µM. The “affinity weaker than the literature value, CA VII” value on CA VII [2] (FTSA Kd against 10 nM of ref 5) is on record as 100,000 fold. Moreover, at CA VII [9], the Ki is 0.01 µM.

Take `NS(=O)(=O)c1ccc2c(c1)S(=O)(=O)NC2=O` [Compound 2]: the Kd at CA II [10] was 0.4 µM; on CA XII [3] (setting [17]), 0.22 µM; at CA XIII [4] (setting [13]), ~0.2 µM and 0.2 µM; at CA I [5] it was 1.4 µM; at CA II [11], 0.29 µM; at CA XII [7], 0.099 µM. For the same compound, the Kd at CA XIII [8] (setting [13]) was found to be 0.12 µM.

Regarding `CC#CCN1C(=O)c2ccc(S(N)(=O)=O)cc2S1(=O)=O` [Compound 3], the Kd on CA I [1] (setting [12]) was found to be 0.018 µM; on CA II [10], 0.02 µM; at CA VII [2] (setting [15]), 0.11 µM; on CA XII [3] (setting [17]) it was 0.29 µM; on CA XIII [4] (setting [13]), 0.045 µM; at CA I [5] (setting [14]) it was 0.028 µM. Besides, the Kd stood at 0.056 µM at CA II [11] (setting [18]), 0.16 µM on CA VII [6] (setting [15]), 0.25 µM at CA XII [7] (setting [16]) and 0.047 µM at CA XIII [8] (setting [13]). In addition, the “energetic contribution (difference in ΔG of binding), CA I” value at CA I [1] was -3.47 kcal/mol. Besides, at CA XIII [4], the “shift of the melting temperature Tm, CA XIII” value is listed as “significant”.

`NS(=O)(=O)c1ccc2c(c1)S(=O)(=O)N(CCc1ccccc1)C2=O` [Compound 4]: the Kd is 0.00033 µM on CA I [1] (read-out: affinity (Kd), CA I); 0.0025 µM at CA II [10]; 0.0043 µM at CA VII [2] (setting [15]); 0.025 µM at CA XII [3] (setting [17]); 0.0067 µM on CA XIII [4] (setting [13]); less than 0.02 µM at CA I [5] (setting [14]). Further, the Kd is less than 0.02 µM on CA II [11] (setting [18]), less than 0.02 µM on CA VII [6] (setting [15]), 0.04 µM on CA XII [7] (setting [16]) and less than 0.02 µM on CA XIII [8] (setting [13]). Besides, the “energetic contribution (difference in ΔG of binding), CA I” value at CA I [1] is -5.93 kcal/mol. In addition, on CA XIII [4], the “shift of the melting temperature Tm, CA XIII” value was “significant”.
